Assay results published in US6548536B2, “Agent for inducing apoptosis” (Kyowa Hakko Kogyo Co., Ltd., priority 1998, dated 2003).
Values after ≈ are worked out from the molar mass of the structure shown.

What was measured:
Assay type in all cases: cell-based
HeLa/bcl-2 cells [1] = assay: Anti-Fas antibody-dependent apoptosis inducing activity for HeLa/bcl-2 cells; details: Drug concentration: 5 μM, added simultaneously with anti-Fas monoclonal antibody (CH11, 10 ng); 6 hours; Anti-Fas antibody = 100
Description: In HeLa/bcl-2 cells into which the bcl-2 gene is introduced, apoptosis is suppressed by the bcl-2 gene. For this reason, they acquire resistance to apoptosis induced by various anticancer agents or anti-Fas antibodies. Test compounds were examined in their eliminating effect on the apoptosis resistance of HeLa/bcl-2 by simultaneously adding an anti-Fas antibody and each test compound to HeLa/bcl-2 cells and detecting enzymatic activity of caspase that was activated in the process of apoptosis induction as described below. HeLa/bcl-2 cells in Medium A were placed in each well of a 96-well microtiter plate in an amount of 3×10^4 cells. The plate was incubated in a carbon dioxide gas incubator at 37° C. for 12 hours, then each test compound appropriately diluted with Medium A (10 μl) and an anti-Fas monoclonal antibody (CH11, 10 ng) were simultaneously added to each well, and the plate was further incubated in a carbon dioxide gas incubator at 37° C. for 6 hours. After the culture supernatant was removed, the cells were lysed, and caspase activity was measured in the same manner as in Test Example 1. The enzymatic activity of caspase, which was not increased by an anti-Fas antibody alone, was increased by the treatment with the anti-Fas antibody together with the test compound.

HeLa cells = assay: Apoptosis inducing activity (caspase activation, Ac-DEVD-AMC) for HeLa cells; details: Drug concentration: 5 μM; 6 hours; No drug = 100
Description: (§1) Apoptosis inducing activity of the medicaments of the present invention was determined by measuring enzymatic activity of caspase activated in the process of apoptosis induction as described below,. HeLa cells or HeLa cells into which the bcl-2 gene was introduced (HeLa/bcl-2 cells) contained in DME medium containing 10% fetal calf serum (NISSUI PHARMACEUTICAL CO., LTD., referred to as “Medium A” hereinafter in the example) were placed in each well of 96-well microtiter plates in an amount of 3×10^4 cell. The cells on the plates were cultured in a carbon dioxide gas incubator at 37° C. for 12 hours, then a test compound appropriately diluted with Medium A was added to each well in an amount of 10 μl, and the cells were further cultured in a carbon dioxide gas incubator at 37° C. for 6 hours. After the culture supernatant was removed, the cells were lysed, and to the cell lysate was added a fluorescent substrate of caspase, Ac-DEVD-AMC (Peptide Laboratory). Then, the caspase activity was determined by measuring AMC (7-amino-4-methylcoumarin) released as a result of degradation of Ac-DEVD-AMC by caspase remained in the cell lysate through measurement of fluorescence intensity at 460 nm.

[2] = system: Enterococcus hirae ATCC10541; assay: Antibacterial activity, agar dilution method; design: key: —: Inactive; details: pH 7
Description: (§2) Antibacterial activity was determined by the agar dilution method using a medium prepared by dissolving 3 g of Bacto trypton (Difco), 3 g of meat extract, 1 g of yeast extract, 1 g of glucose, and 16 g of agar in 1 L of water (pH 7). The antibacterial activities of typical compounds are shown in Table 6 as minimum growth inhibitory concentrations (MIC)

[3] = system: Staphylococcus aureus ATCC6538P; assay: Antibacterial activity, agar dilution method; design: key: —: Inactive; details: pH 7
Description: as §2

[4] = system: Bacillus Subtilis ATCC107O7; assay: Antibacterial activity, agar dilution method; design: key: —: Inactive; details: pH 7
Description: as §2

HeLa/bcl-2 cells [5] = assay: Apoptosis inducing activity (caspase activation, Ac-DEVD-AMC) for HeLa/bcl-2 cells; details: Drug concentration: 5 μM; 6 hours; No drug = 100
Description: as §1

HeLa/bcl-2 cells [6] = assay: Cytotoxic activity for HeLa/bcl-2 cells (XTT staining); details: 24 hours, read-out: Growth Inhibition (IC50), HeLa/bcl-2 cell
Description: HeLa/bcl-2 cells in Medium A were placed in each well of a 96-well microtiter plate in an amount of 3×10^4 cells. The plate was incubated in a carbon dioxide gas incubator at 37° C. for 12 hours, then 10 μl of each test compound appropriately diluted with Medium A was added to each well, and the incubation was further continued in a carbon dioxide gas incubator at 37° C.

MCF-7 cell = assay: Growth inhibition test for hormone-dependent human breast cancer MCF-7 cell strain (MTT); details: 72 hours
Description: Cells were placed in each well of a 96-well microplate (Nunc, #167008) in an amount of 4000 cells per well, and the cells were pre-cultured in RPMI 1640 medium containing 5% fetal calf serum (FCS) for 24 hours in a 5% carbon dioxide gas incubator at 37° C. Then, a solution of each test compound in dimethyl sulfoxide (DMSO) prepared at a concentration of 10 mmol/L was serially diluted with the culture medium and added to each well (final volume: 100 μL/well). The cells were then further cultured for 72 hours in a 5% carbon dioxide gas incubator at 37° C. Five hours before completion of the culture, 4,5-dimethylthiazol-2-yl)-2,5-diphenyltetrazolium bromide (Sigma, abbreviated as “MTT” hereinafter) prepared at a concentration of 6 mg/mL with the culture medium was added in an amount of 10 μL per well. After the completion of culture, the medium was sucked, DMSO was added to each well in an amount of 150 μL per well and the mixture was vigorously stirred by using a plate mixer to completely dissolve the crystals of MTT-formazan. Then, difference of absorbance at 550 nm and 630 nm was determined by using a microplate reader (M-Spmax250, Wako Pure Chemicals). Inhibitory activity on the cell growth was calculated as 50% growth inhibitory concentration (IC50) based on a 4-parameter logistic calibration curve by using the formula of the analysis software (SOFTmax-J Ver.2.1) equipped with microplate reader.

SMILES	Rate of Caspase Activation, HeLa/bcl-2 cell (HeLa/bcl-2 cells [1]) [%]	Rate of Caspase Activation, HeLa cell (HeLa cells) [%]	MIC, EH [2]	MIC, SA [3]	MIC, BS [4]	Rate of Caspase Activation, HeLa/bcl-2 cell (HeLa/bcl-2 cells [5]) [%]	IC50 (HeLa/bcl-2 cells [6]) [nM]	IC50 (MCF-7 cell) [nM]
COC(=O)NC1C(C)OC(OC2C/C=C(\C)C3C=CC4C(OC5CC(OC6CCC(OC7CC(O)C(OC8CCC(O)C(C)O8)C(C)O7)C(C)O6)C(OC(C)=O)C(C)O5)C(C)CC(C)C4C3(C)C(=O)C3=C(O)C4(CC(C=O)=CC(O)C4/C=C/2C)OC3=O)CC1(C)[N+](=O)[O-] (stereo not shown) [Compound 1]	964							
COC(=O)NC1C(C)OC(OC2C/C=C(\C)C3C=CC4C(O[Si](C)(C)C(C)(C)C)C(C)CC(C)C4C3(C)C(=O)C3=C(O)C4(CC(C=O)=CC(O)C4/C=C/2C)OC3=O)CC1(C)[N+](=O)[O-] (stereo not shown) [Compound 22]	444	243	21 µg/mL (≈ 23.4 µM)	42 µg/mL (≈ 46.8 µM)	—	1078	1800	
COC(=O)NC1C(C)OC(OC2C/C=C(\C)C3C=CC4C(OC5CC(OC6CCC(OC7CC(O)C(O)C(C)O7)C(C)O6)C(OC(C)=O)C(C)O5)C(C)CC(C)C4C3(C)C(=O)C3=C(O)C4(CC(C=NO)=CC(O)C4/C=C/2C)OC3=O)CC1(C)[N+](=O)[O-] (stereo not shown) [Compound 24]			>92 µg/mL	>92 µg/mL	2.9 µg/mL (≈ 2.39 µM)			
COC(=O)NC1C(C)OC(OC2C/C=C(\C)C3C=CC4C(OC5CC(OC6CCC(O)C(C)O6)C(OC(C)=O)C(C)O5)C(C)CC(C)C4C3(C)C(=O)C3=C(O)C4(CC(C=NO)=CC(O)C4/C=C/2C)OC3=O)CC1(C)[N+](=O)[O-] (stereo not shown) [Compound 25]			—	—	>83 µg/mL			
COC(=O)C=CC1=CC(O)C2/C=C(\C)C(OC3CC(C)([N+](=O)[O-])C(NC(=O)OC)C(C)O3)C/C=C(\C)C3C=CC4C(OC5CC(OC6CCC(OC7CC(O)C(OC8CCC(O)C(C)O8)C(C)O7)C(C)O6)C(OC(C)=O)C(C)O5)C(C)CC(C)C4C3(C)C(=O)C3=C(O)C2(C1)OC3=O (stereo not shown) [Compound 37]			—	—	0.42 µg/mL (≈ 0.307 µM)			5110
CCOC(OCC)C1=CC(O)C2/C=C(\C)C(OC3CC(C)([N+](=O)[O-])C(NC(=O)OC)C(C)O3)C/C=C(\C)C3C=CC4C(OC5CC(OC6CCC(OC7CC(O)C(OC8CCC(O)C(C)O8)C(C)O7)C(C)O6)C(OC(C)=O)C(C)O5)C(C)CC(C)C4C3(C)C(=O)C3=C(OC)C2(C1)OC3=O (stereo not shown) [Compound 38]			—	—	12.5 µg/mL (≈ 8.92 µM)			1220
COC(=O)NC1C(C)OC(OC2C/C=C(\C)C3C=CC4C(OC5CCCCO5)C(C)CC(C)C4C3(C)C(=O)C3=C(O)C4(CC(C=O)=CC(OC(C)=O)C4/C=C/2C)OC3=O)CC1(C)[N+](=O)[O-] (stereo not shown) [Compound 51]	460		1.56 µg/mL (≈ 1.72 µM)	1.56 µg/mL (≈ 1.72 µM)	6.25 µg/mL (≈ 6.88 µM)			1360
COC(=O)NC1C(C)OC(OC2CC=C(C)C3C=CC4C(OC5CC(OCc6ccccc6)C(OCc6ccccc6)C(COCc6ccccc6)O5)C(C)CC(C)C4C3(C)C(=O)C3=C(O)C4(CC(C=O)=CC(O)C4C=C2C)OC3=O)CC1(C)[N+](=O)[O-] (stereo not shown) [Compound 55]		106				448		
COC(=O)NC1C(C)OC(OC2CC=C(C)C3C=CC4C(OC5CC(OCc6ccccc6)C(OCc6ccccc6)C(COCc6ccccc6)O5)C(C)CC(C)C4C3(C)C(=O)C3=C(O)C4(CC(C=O)=CC(OC(C)=O)C4C=C2C)OC3=O)CC1(C)[N+](=O)[O-] (stereo not shown) [Compound 56]								630
COC(=O)NC1C(C)OC(OC2CC=C(C)C3C=CC4C(OC5CC(OC(C)=O)C(OC(C)=O)C(C)O5)C(C)CC(C)C4C3(C)C(=O)C3=C(O)C4(CC(C=O)=CC(OC(C)=O)C4C=C2C)OC3=O)CC1(C)[N+](=O)[O-] (stereo not shown) [Compound 59]			>66.7 µg/mL	>66.7 µg/mL	16.7 µg/mL (≈ 16.1 µM)			980
COC(=O)NC1C(C)OC(OC2CC=C(C)C3C=CC4C(OC5C=CC(O)C(C)O5)C(C)CC(C)C4C3(C)C(=O)C3=C(O)C4(CC(C=O)=CC(OC(C)=O)C4C=C2C)OC3=O)CC1(C)[N+](=O)[O-] (stereo not shown) [Compound 60]	526		—	—	>83.3 µg/mL			
COC(=O)NC1C(C)OC(OC2CC=C(C)C3C=CC4C(OC5C=CC(OC(C)=O)C(C)O5)C(C)CC(C)C4C3(C)C(=O)C3=C(O)C4(CC(C=O)=CC(OC(C)=O)C4C=C2C)OC3=O)CC1(C)[N+](=O)[O-] (stereo not shown) [Compound 61]	452	213	—	—	10.4 µg/mL (≈ 10.6 µM)	370		1450
CC[Si](CC)(CC)OC1C=CC(OC2C(C)CC(C)C3C2C=CC2C(C)=CCC(OC4CC(C)([N+](=O)[O-])C(NC(=O)OC)C(C)O4)C(C)=CC4C(OC(C)=O)C=C(C=O)CC45OC(=O)C(=C5O)C(=O)C23C)OC1C (stereo not shown) [Compound 63]			—	—	>91.7 µg/mL			720
COC(=O)NC1C(C)OC(OC2C/C=C(\C)C3C=CC4C(OC5CC(OC6CCC(OC7CC(OC(C)=O)C(O)C(C)O7)C(C)O6)C(OC(C)=O)C(C)O5)C(C)CC(C)C4C3(C)C(=O)C3=C(O)C4(CC(C=O)=CC(OC(C)=O)C4/C=C/2C)OC3=O)CC1(C)[N+](=O)[O-] (stereo not shown) [Compound 65]	659		—	—	2.34 µg/mL (≈ 1.82 µM)			520
COC(=O)NC1C(C)OC(OC2CC=C(C)C3C=CC4C(OC5(C)OC6OC(COC(C)=O)C(OC(C)=O)C(OC(C)=O)C6O5)C(C)CC(C)C4C3(C)C(=O)C3=C(O)C4(CC(C=O)=CC(OC(C)=O)C4C=C2C)OC3=O)CC1(C)[N+](=O)[O-] (stereo not shown) [Compound 66]			60.0 µg/mL (≈ 51.9 µM)	60.0 µg/mL (≈ 51.9 µM)	>60.0 µg/mL			1400
